Assay results from ChEMBL document CHEMBL3271944, “Biologically active polycycloalkanes. 2. Antiviral 4-homoisotwistane derivatives” (J Med Chem, 1976).
≈ marks a conversion by molar mass, not a printed value. Structures can show the parent of a compound that is named as a salt.

Legend:
Newcastle disease virus [1] = assay: Antiviral activity against Newcastle disease virus Miyadera infected in CEF assessed as suppression of <= 1% hemagglutinating activity by tube assay; format: functional; conditions: avian paramyxovirus 1, Miyadera
[2] = Cytotoxicity against CEF after 24 hrs by microscopic analysis; set-up: species or system Gallus gallus; conditions: chicken; for MCC at 24 h: CEF cells; for MCC: 24 h
Newcastle disease virus [3] = assay: Ratio of amantadine hydrochloride MIC to compound MIC for Newcastle disease virus Miyadera infected in CEF; format: functional, avian paramyxovirus 1
[4] = Ratio of MCC for CEF to MIC for Newcastle disease virus Miyadera infected in CEF

Compound	MIC (Newcastle disease virus [1])	MCC at 24 h [2]	MCC [2]	Ratio (Newcastle disease virus [3])	Ratio [4]
NC(=O)C12CCCC3CC(CCC31)C2 (stereo not given)	2600 µM (≈ 503 µg/mL)	5200 µM	–	–	–
O=C(NC1CCCCC1)C12CCCC3CC(CCC31)C2 (stereo not given)	2250 µM (≈ 620 µg/mL)	2250 µM	–	–	–
NC12CC3CC(CC(C3)C1)C2 [AMANTADINE HYDROCHLORIDE]	1300 µM	1300 µM	–	–	–
C1=C2CCCC3CC1CCC23 (stereo not given)	–	–	ND(Unstable)	–	–
Cl.NCC12CCCC3CC(CCC31)C2 (stereo not given)	45 µM	90 µM	–	30	2
N#CC12CCCC3CC(CCC31)C2 (stereo not given)	570 µM (≈ 99.9 µg/mL)	850 µM	–	–	–
O=C(NC12CC3CC(CC(C3)C1)C2)C12CCCC3CC(CCC31)C2 (stereo not given)	7500 µM (≈ 2460 µg/mL)	2000 µM	–	–	–
CNC(=O)C12CCCC3CC(CCC31)C2 (stereo not given)	3000 µM (≈ 622 µg/mL)	750 µM	–	–	–
OC12CCCC3CC(CCC31)C2 (stereo not given)	3000 µM (≈ 499 µg/mL)	6000 µM	–	–	–
BrC12CCCC3CC(CCC31)C2 (stereo not given)	–	–	ND(Unstable)	–	–
O[C@H]1C2CCCC3C[C@H]1CC[C@H]32 (relative stereo)	900 µM (≈ 150 µg/mL)	1800 µM	–	–	–
COC(=O)C12CCCC3CC(CCC31)C2 (stereo not given)	80 µM (≈ 16.7 µg/mL)	80 µM	–	–	–
Cl.NC12CCCC3CC(CCC31)C2 (stereo not given)	25 µM	200 µM	–	30	2
C1CC2CC3CCC2C(C1)C3	670 µM (≈ 101 µg/mL)	670 µM	–	–	–
O=C(Cl)C12CCCC3CC(CCC31)C2 (stereo not given)	–	–	ND(Unstable)	–	–
CCCCNC(=O)C12CCCC3CC(CCC31)C2 (stereo not given)	625 µM (≈ 156 µg/mL)	300 µM	–	–	–
OCC12CCCC3CC(CCC31)C2 (stereo not given)	440 µM (≈ 79.3 µg/mL)	870 µM	–	–	–
CCCCCCCCOC(=O)C12CCCC3CC(CCC31)C2 (stereo not given)	330 µM (≈ 101 µg/mL)	490 µM	–	–	–
O=C(O)C12CCCC3CC(CCC31)C2 (stereo not given)	10000 µM (≈ 1940 µg/mL)	10000 µM	–	–	–
O[C@@H]1C2CCCC3C[C@@H]1CC[C@@H]32 (relative stereo)	750 µM (≈ 125 µg/mL)	750 µM	–	–	–
CC(=O)NC12CCCC3CC(CCC31)C2 (stereo not given)	750 µM (≈ 155 µg/mL)	3000 µM	–	–	–
O=C1C2CCC3C(CCCC13)C2 (stereo not given)	1200 µM (≈ 197 µg/mL)	2400 µM	–	–	–
